Measurements taken from US8962843B2, “1,3,4-oxadiazole and 1,3,4-thiadiazole beta-lactamase inhibitors” (priority 2012, dated 2015).
Structures can show the parent of a compound that is named as a salt.

What follows are compounds tested on bacterial strains that express the class D cephalosporinase OXA-15 (assay: Standard BLI potentiation MIC / synergy MIC assays, strains expressing OXA-15). Conditions: in combination with a β-lactam; comparator Avibactam (CCC).
Format: cell-based, E. coli
Description: The experimental protocol was performed according to Clinical and Laboratory Standards Institute (CLSI) guidelines with modifications as described below (CLSI guidelines can be derived from the CLSI document M07-A9 published in January 2012: “Methods for Dilution Antimicrobial Susceptibility Tests for Bacteria That Grow Aerobically; Approved Standard-Ninth Edition”).
To prepare for MIC testing, frozen glycerol stocks of clinical isolates (Klebsiella pneumoniae, Eschericia coli, Enterobacter spp, Citrobacter spp, or Pseudomonas aeruginosa) were used to streak for isolated colonies on rich, non-selective, tryptic soy agar containing 5% sheep's blood (TSAB). Frozen glycerol stocks of laboratory engineered, isogenic E. coli strains, which contain cloned β-lactamase expressing plasmids were used to streak for isolated colonies on rich, selective LB agar supplemented with 25 μg/mL tetracycline to maintain the plasmid. All strains were incubated at 37° C. for 18-24 hrs.
On the day of testing, primary cultures were started by scraping off 5-10 colonies from the TSAB plates containing clinical strains or the tetracycline supplemented LB plates containing engineered strains. The clinical strain material was suspended in ˜5 mL of cation adjusted Mueller Hinton Broth (CAMHB) in 14 mL culture tubes. The engineered strain material was suspended in CAMHB (supplemented with 25 μg/mL tetracycline) in 14 mL culture tubes. All strains were incubated at 37° C. with aeration (200 rpm) for ˜2 hrs until the optical density at 600 nm (OD600) was >0.1.
The two compound components of the assay were each diluted in CAMHB and added to the 96-well broth microdilution assay plates. 50 μL of the β-lactam was added to each well of the assay plate in 2-fold dilutions with final concentrations ranging from 128 to 0.13 μg/mL. 25 μL of the BLI compound was added to all wells in the broth microdilution plates at a final concentration of 4 μg/mL. Inoculum cultures were prepared by standardizing the primary cultures to OD600=0.1 and then adding 20 μL of the adjusted primary culture per 1 mL CAMHB for clinical strains or CAMHB (supplemented with tetracycline at 100 μg/mL) for engineered strains, so that the final inoculum density was ˜10^5 colony forming units per milliliter. Diluted inoculum cultures were used to inoculate 25 μl, per well in 96-well broth microdilution assay plates. The final volume of each well was 100 μL and contained a β-lactam at different concentrations, a BLlcompound at 4 μg/mL concentration, the bacterial culture at an OD600 of approximately 0.001 and when necessary tetracycline at 25 μg/mL.
Plates were incubated for 18-20 hours at 37° C. with aeration (200 rpm). Following incubation, growth was confirmed visually placing plates over a viewing apparatus (stand with a mirror underneath) and then OD600 was measured using a SpectraMax 340PC384 plate reader (Molecular Devices, Sunnyvale, Calif.). Growth was defined as turbidity that could be detected with the naked eye or achieving minimum OD600 of 0.1. MIC values were defined as the lowest concentration producing no visible turbidity.
The synergy MIC (sMIC) assay determines the concentration of the BLI required to potentiate the activity of a fixed concentration of a β-lactam antibiotic against β-lactamase producing bacterial strains. The experimental protocol was performed according to Clinical and Laboratory Standards Institute (CLSI) guidelines with modifications as described below (CLSI guidelines can be derived from the CLSI document M07-A9 published in January 2012: “Methods for Dilution Antimicrobial Susceptibility Tests for Bacteria That Grow Aerobically; Approved Standard-Ninth Edition”). […]
With O=C1N2C[C@@H](CC[C@H]2c2nnc([C@@H]3CNCCN3)o2)N1OS(=O)(=O)O [Compound 778, (2S,5R)-7-oxo-2-(5((S)-piperazin-2-yl)-1,3,4-oxadiazol-2-yl)-1,6-diazabicyclo[3.2.1]octan-6-yl hydrogen sulfate] the “activity against bacterial strains that express the class D cephalosporinase OXA-15, compared with Avibactam” value (from here on “activity … compared with Avibactam”) was “more active than Avibactam”.
With NCCNCCc1nnc([C@@H]2CC[C@@H]3CN2C(=O)N3OS(=O)(=O)O)o1 [Compound 716, (2S,5R)-2-(5-(2-((2-aminoethyl)amino)ethyl)-1,3,4-oxadiazol-2-yl)-7-oxo-1,6-diazabicyclo[3.2.1]octan-6-yl hydrogen sulfate] the “activity … compared with Avibactam” value was “more active than Avibactam”.
For Nc1nnc([C@@H]2CC[C@@H]3CN2C(=O)N3OS(=O)(=O)O)o1 [Compound 707, (2S,5R)-2-(5-amino-1,3,4-oxadiazol-2-yl)-7-oxo-1,6-diazabicyclo[3.2.1]octan-6-yl hydrogen sulfate], the “activity … compared with Avibactam” value was “more active than Avibactam”.
NC1CCN(c2nnc([C@@H]3CC[C@@H]4CN3C(=O)N4OS(=O)(=O)O)o2)CC1 [Compound 773, (2S,5R)-2-(5-(4-aminopiperidin-1-yl)-1,3,4-oxadiazol-2-yl)-7-oxo-1,6-diazabicyclo[3.2.1]octan-6-yl hydrogen sulfate] was tested, and the “activity … compared with Avibactam” value was “more active than Avibactam”.
With O=C1N2C[C@@H](CC[C@H]2c2nnc(CC3CNC3)o2)N1OS(=O)(=O)O [Compound 725, (2S,5R)-2-(5-(azetidin-3-ylmethyl)-1,3,4-oxadiazol-2-yl)-7-oxo-1,6-diazabicyclo[3.2.1]octan-6-yl hydrogen sulfate] the “activity … compared with Avibactam” value was “more active than Avibactam”.
In the case of O=C1N2C[C@@H](CC[C@H]2c2nnc(C3CCNCC3)s2)N1OS(=O)(=O)O [Compound 719, (2S,5R)-7-oxo-2-(5-(piperidin-4-yl)-1,3,4-thiadiazol-2-yl)-1,6-diazabicyclo[3.2.1]octan-6-yl hydrogen sulfate], the “activity … compared with Avibactam” value is reported as “more active than Avibactam”.
For NCC(N)c1nnc([C@@H]2CC[C@@H]3CN2C(=O)N3OS(=O)(=O)O)o1 (stereo partly drawn) [Compound 717, (2S,5R)-2-(5-(1,2-diaminoethyl)-1,3,4-oxadiazol-2-yl)-7-oxo-1,6-diazabicyclo[3.2.1]octan-6-yl hydrogen sulfate], the “activity … compared with Avibactam” value was “more active than Avibactam”.
With N=C(N)N1CCC(c2nnc([C@@H]3CC[C@@H]4CN3C(=O)N4OS(=O)(=O)O)o2)CC1 [Compound 712, (2S,5R)-2-(5-(1-carbamimidoylpiperidin-4-yl)-1,3,4-oxadiazol-2-yl)-7-oxo-1,6-diazabicyclo[3.2.1]octan-6-yl hydrogen sulfate] the “activity … compared with Avibactam” value was “more active than Avibactam”.
In the case of O=C1N2C[C@@H](CC[C@H]2c2nnc(N3CCNCC3)o2)N1OS(=O)(=O)O [Compound 713, (2S,5R)-7-oxo-2-(5-(piperazin-1-yl)-1,3,4-oxadiazol-2-yl)-1,6-diazabicyclo[3.2.1]octan-6-yl hydrogen sulfate], the “activity … compared with Avibactam” value is reported as “more active than Avibactam”.
For N[C@H]1C[C@H](NCc2nnc([C@@H]3CC[C@@H]4CN3C(=O)N4OS(=O)(=O)O)o2)C1 [Compound 757, (2S,5R)-2-(5-((((1r,3S)-3-aminocyclobutyl)amino)methyl)-1,3,4-oxadiazol-2-yl)-7-oxo-1,6-diazabicyclo[3.2.1]octan-6-yl hydrogen sulfate], the “activity … compared with Avibactam” value was “more active than Avibactam”.
For O=C1N2C[C@@H](CC[C@H]2c2nnc(CNC3CCNCC3)o2)N1OS(=O)(=O)O [Compound 769, (2S,5R)-7-oxo-2-(5-((piperidin-4-ylamino)methyl)-1,3,4-oxadiazol-2-yl)-1,6-diazabicyclo[3.2.1]octan-6-yl hydrogen sulfate], the “activity … compared with Avibactam” value was “more active than Avibactam”.
